In patent US7838288B2, “Modulators of odorant receptors” (Duke University, priority 2004, dated 2010):
“Also recorded” adds a separate entry of the source.

How the values were obtained:
[1] = biological target: T1, mouse odorant receptor OREG (Mus musculus, UniProt Q920P2); assay: CRE-luciferase reporter gene assay, OREG; type: cell-based
T1 construct: expressed in transfected cells; host or cells: 293T cells (with or without co-transfected REEP1/RTP1/RTP2) and Hana3A cells (293T stably expressing mouse REEP1, RTP1, RTP2, Galpha-olf)
T1 sequence (Q920P2 1-313): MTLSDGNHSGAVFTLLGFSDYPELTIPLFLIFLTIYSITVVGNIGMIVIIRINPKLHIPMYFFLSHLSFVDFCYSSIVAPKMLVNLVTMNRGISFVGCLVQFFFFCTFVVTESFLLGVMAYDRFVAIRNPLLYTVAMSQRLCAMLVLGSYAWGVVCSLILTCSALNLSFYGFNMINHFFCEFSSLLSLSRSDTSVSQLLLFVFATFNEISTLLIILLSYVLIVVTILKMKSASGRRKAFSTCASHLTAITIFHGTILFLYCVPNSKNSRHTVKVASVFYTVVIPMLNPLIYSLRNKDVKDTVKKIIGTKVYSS
Text: Poor odorant evoked signaling activity in heterologous cell culture systems expressing ORs has been attributed to the poor cell surface expression of ORs. The identification of REEP and/or RTP allowed a direct assessment of this issue. A luciferase reporter gene assay was employed in which a cAMP responsive element (CRE) mediated luciferase gene expression (see FIG. 8A). Because OR activation leads to an increase in cAMP, activation of the mouse odorant receptor OREG by its ligand eugenol was measured in the presence and absence of REEP and/or RTP (see, e.g., Kajiya, K., et al. (2001) J Neurosci 21, 6018-6025; Touhara, K., et al., (1999) Proc Natl Acad Sci USA 96, 4040-4045; each herein incorporated by reference in their entireties). As reported previously, eugenol increased levels of OREG dependent luciferase activity (see, e.g., Katada, S., et al. (2003) Biochem Biophys Res Commun 305, 964-969; herein incorporated by reference in its entirety).
(§1) To facilitate analysis of odorant-OR interactions, 293T cell lines were established which stably express REEP1, RTP1, RTP2 and Gαolf, the G protein alpha subunit that couples to OR (see, e.g., Belluscio, L., et al. (1998) Neuron 20, 69-81; Jones, D. T., and Reed, R. R. (1989). Science 244, 790-795; each herein incorporated by reference in their entireties). To establish such cells, linearized expression vectors containing mouse REEP1, RTP1, RTP2 and Gαolf ORFs were transfected into 293T cells with PGK-Pac (puromycin resistant gene) (see, e.g., Watanabe, S., et al. (1995) Biochem Biophys Res Commun 213, 130-137; herein incorporated by reference in its entirety). […] Enhanced cell-surface expression was observed when OREG or other ORs were transfected in Hana3A cells and immunostained (see FIG. 10). […] Expression of Gαolf alone in 293T cells had little or no effect on OR activation using this assay.
Dual-Glo system (Promega) for luciferase assay was used. CRE-Luciferase (Stratagene) was used to measure the receptor activities. Renilla luciferase driven by constitutively active SV40 promoter (pRL-SV40: Promega) was used as an internal control. Cells were plated on poly-D-lysine coated 96 well plates (BIOCOAT, Beckton Dickinson). After 8 hours (for experiments shown in FIGS. 8B and 8C) or 12 hours (for experiments shown in FIG. 8D and FIG. 11) after transfection, the medium was replaced with CD293 chemically defined medium (Invitrogen) and the plates were incubated for one hour at 37 degrees C. The medium was replaced with 50 ul of odorant solutions dissolved in CD293 and incubated for 10 hours (for experiments shown in FIGS. 8B and 8C) or 4 hours (for experiments shown in FIG. 8D and FIG. 11) at 37 degrees C. The manufacture's protocol for measuring luciferase and Renilla luciferase activities was followed. Luminescence was measured using Wallac Victor 1420 (Perkin-Elmer). Normalized luciferase activity was calculated as [Luc (N)-Luc (0)]/RL (N), where Luc (N)=Luminescent count of a certain well, Luc (0)=Luminescent count without odorant for each OR, and RL (N)=Luminescent count of Renilla Luciferase of each well. For cAMP assays, cells were plated onto 24-well plate. […]. Prism software (Graphpad) was used for data analysis.

OREG = biological target: T2, OREG (Mus musculus, UniProt Q920P2); assay: cAMP assay, OREG; type: cell-based; settings: OREG transfected; Hana3A cells vs 293T cells expressing Gαolf
T2 construct: expressed in transfected cells; host or cells: Hana3A cells, or HEK293T cells co-transfected with Golf
T2 sequence (Q920P2 1-313): T1 sequence (Q920P2 1-313)
Experimental: In order to confirm the increased OR function in the presence of REEP1, RTP1 and RTP2, the amount of cAMP upon ligand stimulation was measured using 293T cells expressing Gαolf and Hana3A cells. […] In contrast, when the β2 adrenergic receptor was expressed and isoproterenol was used, no significant differences in cAMP production were observed (see FIG. 8E). The present invention is not limited to a particular mechanism. Indeed, an understanding of the mechanism is not necessary to practice the present invention. Nonetheless, this further supports a specific role of the accessory proteins in functional OR expression.
Dual-Glo system (Promega) for luciferase assay was used. CRE-Luciferase (Stratagene) was used to measure the receptor activities. Renilla luciferase driven by constitutively active SV40 promoter (pRL-SV40: Promega) was used as an internal control. Cells were plated on poly-D-lysine coated 96 well plates (BIOCOAT, Beckton Dickinson). […] Luminescence was measured using Wallac Victor 1420 (Perkin-Elmer). Normalized luciferase activity was calculated as [Luc (N)-Luc (0)]/RL (N), where Luc (N)=Luminescent count of a certain well, Luc (0)=Luminescent count without odorant for each OR, and RL (N)=Luminescent count of Renilla Luciferase of each well. […]

OR-S6/S79 = assay: CRE-luciferase reporter gene assay, OR-S6/S79; type: cell-based, mouse; settings: Hana3A cells
Experimental: Four ORs (S6/79, S18, S46 and S50) previously assayed using other techniques (see, e.g., Malnic, B., et al. (1999) Cell 96, 713-723; herein incorporated by reference in its entirety) were tested against an assay panel of aliphatic alcohols, aldehydes and acids and some other odorants. Additionally, five “orphan” class I ORs (MOR23-1, MOR31-4, MOR31-6, MOR32-5 and MOR32-11) whose cognate ligands were unknown were tested. At a suprathreshold concentration of 100 uM, all these ORs were odorant selective, responding to only a small subset of the odorants tested (see FIG. 11A). This specificity was retained at lower, more physiologically relevant concentrations. Many of these ORs responded to odorants present in micromolar concentrations. The cell-surface expression of these ORs by living-cell immunofluorescence were evaluated. Some ORs (S18, MOR31-4, MOR31-6 and MOR32-5) were strongly expressed while other ORs (S6, S50, MOR23-1, MOR32-11) were weakly expressed (see FIG. 12). The present invention is not limited to a particular mechanism. Indeed, an understanding of the mechanism is not necessary to practice the present invention. […] Finally, two additional orphan class II ORs, MOR203-1 and olfr62, were tested against a panel of 139 odorants. […] Olfr62 responded to coumarine and piperonal (see FIG. 11C). […] When parental 293T cells for these ORs were used in this luciferase assay, little or no response to the odorants was observed. The present invention is not limited to a particular mechanism. Indeed, an understanding of the mechanism is not necessary to practice the present invention.
An expression system has been established that permits rapid identification of ligands for ORs. This system was tested with twelve ORs. Four of the tested ORs (S6/S79, S18, S46, and S50) were expressed in single olfactory neurons responding to aliphatic odorants (see, e.g., Malnic, B., et al. (1999) Cell 96, 713-723; herein incorporated by reference in its entirety). The response profiles of OR-S50, but not that of OR-S18 agreed with the previous report (see, e.g., Malnic, B., et al. (1999) Cell 96, 713-723; herein incorporated by reference in its entirety). […] In experiments conducted during the course of the present invention, OR-S6/S79 responded to nonanedioic acid but not to heptanoic acid or octanoic acid. The present invention is not limited to a particular mechanism. […] When multiple single olfactory neurons that expressed the same OR were recorded against the same set of odorants using calcium imaging, their response profiles were similar but different (see, e.g., Bozza, T., et al. (2002) J Neurosci 22, 3033-3043; herein incorporated by reference in its entirety).
(§2) Dual-Glo system (Promega) for luciferase assay was used. […] Luminescence was measured using Wallac Victor 1420 (Perkin-Elmer). […]

[2] = tested on: olfactory neurons S6 and S79; settings: previous studies (Malnic 1999); cited from earlier work
OR-S50 = assay: CRE-luciferase reporter gene assay, OR-S50; type: cell-based, mouse
Text: as §1
Dual-Glo system (Promega) for luciferase assay was used. CRE-Luciferase (Stratagene) was used to measure the receptor activities. […] Luminescence was measured using Wallac Victor 1420 (Perkin-Elmer). Normalized luciferase activity was calculated as [Luc (N)-Luc (0)]/RL (N), where Luc (N)=Luminescent count of a certain well, Luc (0)=Luminescent count without odorant for each OR, and RL (N)=Luminescent count of Renilla Luciferase of each well. […]

OR-S46 = assay: CRE-luciferase reporter gene assay, OR-S46; type: cell-based, mouse; settings: Hana3A cells
Text: To facilitate analysis of odorant-OR interactions, 293T cell lines were established which stably express REEP1, RTP1, RTP2 and Gαolf, the G protein alpha subunit that couples to OR (see, e.g., Belluscio, L., et al. (1998) Neuron 20, 69-81; Jones, D. T., and Reed, R. R. (1989). Science 244, 790-795; each herein incorporated by reference in their entireties). To establish such cells, linearized expression vectors containing mouse REEP1, RTP1, RTP2 and Gαolf ORFs were transfected into 293T cells with PGK-Pac (puromycin resistant gene) (see, e.g., Watanabe, S., et al. (1995) Biochem Biophys Res Commun 213, 130-137; herein incorporated by reference in its entirety). […] Enhanced cell-surface expression was observed when OREG or other ORs were transfected in Hana3A cells and immunostained (see FIG. 10). […]
Four ORs (S6/79, S18, S46 and S50) previously assayed using other techniques (see, e.g., Malnic, B., et al. (1999) Cell 96, 713-723; herein incorporated by reference in its entirety) were tested against an assay panel of aliphatic alcohols, aldehydes and acids and some other odorants. […] The cell-surface expression of these ORs by living-cell immunofluorescence were evaluated. […]
as §2

MOR203-1 = assay: CRE-luciferase reporter gene assay, MOR203-1; type: cell-based, mouse; settings: Hana3A cells
Experimental: (§3) Four ORs (S6/79, S18, S46 and S50) previously assayed using other techniques (see, e.g., Malnic, B., et al. (1999) Cell 96, 713-723; herein incorporated by reference in its entirety) were tested against an assay panel of aliphatic alcohols, aldehydes and acids and some other odorants. Additionally, five “orphan” class I ORs (MOR23-1, MOR31-4, MOR31-6, MOR32-5 and MOR32-11) whose cognate ligands were unknown were tested. At a suprathreshold concentration of 100 uM, all these ORs were odorant selective, responding to only a small subset of the odorants tested (see FIG. 11A). This specificity was retained at lower, more physiologically relevant concentrations. Many of these ORs responded to odorants present in micromolar concentrations. The cell-surface expression of these ORs by living-cell immunofluorescence were evaluated. Some ORs (S18, MOR31-4, MOR31-6 and MOR32-5) were strongly expressed while other ORs (S6, S50, MOR23-1, MOR32-11) were weakly expressed (see FIG. 12). […]
(§4) Dual-Glo system (Promega) for luciferase assay was used. […] Luminescence was measured using Wallac Victor 1420 (Perkin-Elmer). Normalized luciferase activity was calculated as [Luc (N)-Luc (0)]/RL (N), where Luc (N)=Luminescent count of a certain well, Luc (0)=Luminescent count without odorant for each OR, and RL (N)=Luminescent count of Renilla Luciferase of each well. […]

MOR23-1 = assay: CRE-luciferase reporter gene assay, MOR23-1; type: cell-based, mouse; settings: Hana3A cells
Experimental: as §3, §4

MOR31-4 = assay: CRE-luciferase reporter gene assay, MOR31-4; type: cell-based, mouse; settings: Hana3A cells
Experimental: as §3, §4

C=CCc1ccc(O)c(OC)c1 [eugenol, reference compound]
luciferase induction ([1]; HA-OREG in 293T cells): Little luciferase induction was observed | luciferase activity ([1]; HA-OREG in Hana3A cells): an enhancement in luciferase activity was observed | OREG dependent luciferase activity ([1]; odorant applied, OREG in 293T cells with or without REEP and/or RTP): increased | cAMP production (OREG): Enhanced cAMP production; also recorded: more cAMP was produced

CCCCCCC(=O)O [heptanoic acid, Heptanoic acid]
response of OR-S6/S79 to odorant (luciferase) (OR-S6/S79): not | response of single olfactory neurons S6 and S79 to odorant [2]: only the olfactory neuron S79 responded

O=C(O)CCCCCCCC(=O)O [nonanedioic acid]
luciferase response (OR-S50; OR-S50 in 293T cells): did not produce a luciferase response | luciferase activity (OR-S50; OR-S50 in Hana3A cells): robust luciferase activity | response of OR-S6/S79 to odorant (luciferase) (OR-S6/S79): responded | response of single olfactory neurons S6 and S79 to odorant [2]: both responded

CCCCCCCCC(=O)O [nonanoic acid, Nonanoic acid]
response of S46 to odorant (luciferase) (OR-S46): responded | response of MOR203-1 to odorant (luciferase) (MOR203-1): responded to high concentrations | response of MOR23-1 to odorant (luciferase) (MOR23-1): responded | response of MOR31-4 to odorant (luciferase) (MOR31-4): responded

CCCCCCCC(=O)O [octanoic acid]
response of OR-S6/S79 to odorant (luciferase) (OR-S6/S79): not | response of single olfactory neurons S6 and S79 to odorant [2]: only the olfactory neuron S79 responded
